From patent publication US8344160B2, “Pyrrolone melanin concentrating hormone receptor-1 antagonists” (Bristol-Myers Squibb Company, priority 2008, dated 2013) come the findings set out here.

Structures can show the parent of a compound that is named as a salt.

For the first assay, the target named is T1, mutated (E4Q, A5T) hMCHR1 receptor (Homo sapiens, UniProt Q99705, A5T/E4Q).
T1 construct: expressed in transfected cells; host or cells: HEK-293 (stably transfected), membrane preparation
T1 sequence (Q99705 whole entry E4Q/A5T): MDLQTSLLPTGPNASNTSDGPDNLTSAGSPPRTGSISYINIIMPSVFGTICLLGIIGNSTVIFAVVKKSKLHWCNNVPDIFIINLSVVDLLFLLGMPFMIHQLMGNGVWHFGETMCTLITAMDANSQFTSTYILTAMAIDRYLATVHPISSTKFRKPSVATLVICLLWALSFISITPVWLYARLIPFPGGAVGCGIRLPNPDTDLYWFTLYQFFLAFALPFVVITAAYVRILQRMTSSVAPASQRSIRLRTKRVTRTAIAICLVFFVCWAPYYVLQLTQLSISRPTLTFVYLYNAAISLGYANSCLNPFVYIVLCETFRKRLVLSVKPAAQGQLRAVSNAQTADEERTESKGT
The experiment in a line: Radioligand binding assay for assessment of MCHR1 activity. Conditions: membranes from stably transfected HEK-293 cells; competition with [Phe13,[125I]Tyr19]-MCH. The procedure: Radioligand Binding Assay for Assessment of MCHR1 Activity
Membranes from stably transfected HEK-293 cells expressing a mutated (E4Q, A5T) hMCHR1 receptor were prepared by dounce homogenization and differential centrifugation. Binding experiments were carried out with 0.5-1.0 ug of membrane protein incubated in a total of 0.2 ml in 25 mM HEPES (pH 7.4) with 10 mM MgCl2, 2 mM EGTA, and 0.1% BSA (Binding Buffer) for 90 min. For competition binding assays, reactions were carried out in the presence of with 0.06-0.1 nM [Phe^13, [^125I]Tyr^19]-MCH and increasing concentrations of unlabeled test molecules. Reactions were terminated by rapid vacuum filtration over 96 well-GFC UNIFILTER® plates pre-coated with 0.075 ml binding buffer containing 1% BSA, and washed 3 times with 0.4 ml of Phospho-buffered Saline (pH 7.4) containing 0.01% TX-100. Filters were dried, 0.05 ml microscint 20 was added to each well and radioactivity was subsequently quantified by scintillation counting on a TOPCOUNT® microplate scintillation counter (Packard). Inhibitory constants were determined by nonlinear least squares analysis using a four parameter logistic equation.
One may read the Ki as a dissociation constant, usually derived from enzyme kinetics or from competition with a known ligand. High values mean weaker binding, low ones tighter binding. The molecule “5-(4-(2-Hydroxy-2-methylpropoxy)-3-methoxyphenyl)-2-(6-methoxypyridin-3-yl)-4H-thieno[3,2-c]pyrrol-6(5H)-one, trifluoroacetic acid salt [Example 41]” displayed a Ki of 0.8 µM.

`COc1cc(N2Cc3cc(-c4ccc(Cl)cc4)sc3C2=O)ccc1OCC(C)(C)O` [Example 1, 2-(4-Chlorophenyl)-5-(4-(2-hydroxy-2-methylpropoxy)-3-methoxyphenyl)-4H-thieno[3,2-c]pyrrol-6(5H)-one]: the Ki came out at 0.0019 µM.

The molecule `COc1cc(N2Cc3cc(-c4ccc(Cl)cc4)sc3C2=O)ccc1OC[C@H](O)C1CC1` [Example 2] gave a Ki of 0.0025 µM.

`COc1cc(N2Cc3cc(-c4ccc(Cl)cc4)sc3C2=O)ccc1OCCN1CCCC1` [Example 3] registered a Ki of 0.0002 µM.

In turn, `COc1cc(N2Cc3cc(-c4ccc(Cl)cc4)sc3C2=O)ccc1O` [Example 6] displayed a Ki of 0.03 µM.

Molecule `CN[C@H]1CCN(c2ccc(N3Cc4cc(-c5ccc(Cl)cc5)sc4C3=O)cn2)C1` [Example 10] yielded a Ki of 0.0003 µM.

Molecule `COc1cc(N2Cc3cc(-c4ccc(Cl)cc4)sc3C2=O)ccc1OC[C@H](O)CS(C)(=O)=O` [Example 15] returned a Ki of 0.0006 µM.

Take `CN(C)[C@@H]1CCN(c2ccc(N3Cc4cc(-c5ccc(Cl)cc5)sc4C3=O)cn2)C1` [Example 21, (R)-2-(4-Chlorophenyl)-5-(6-(3-(dimethylamino)pyrrolidin-1-yl)pyridin-3-yl)-4H-thieno[3,2-c]pyrrol-6(5H)-one]: the Ki was 0.0002 µM.

In turn, `COc1cc(N2Cc3cc(-c4ccc(Cl)cn4)sc3C2=O)ccc1OCC(O)C(F)(F)F` (stereo not drawn) [Example 27] gave a Ki of 0.0025 µM.

Molecule `COc1cc(N2Cc3cc(-c4ncc(Cl)cn4)sc3C2=O)ccc1OCC(C)(C)O` [Example 33] had a Ki of 0.017 µM.

The molecule `COc1cc(N2Cc3cc(-c4ncc(Cl)cn4)sc3C2=O)ccc1N1CCC(O)CC1` [Example 39] had a Ki of 0.0336 µM.

`COc1cc(N2Cc3cc(-c4ccncc4)sc3C2=O)ccc1OCC(C)(C)O` [Example 43] returned a Ki of 1.29 µM.

The molecule `COc1cc(N2Cc3cc(-c4ccc(Cl)nc4)sc3C2=O)ccc1OCC(C)(C)O` [Example 44] came in with a Ki of 0.0216 µM.

Turning to `COc1cc(N2Cc3cc(-c4ccccn4)sc3C2=O)ccc1OCC(C)(C)O` [Example 49, 5-(4-(2-Hydroxy-2-methylpropoxy)-3-methoxyphenyl)-2-(pyridin-2-yl)-4H-thieno[2,3-c]pyrrol-6(5H)-one, trifluoroacetic acid salt], the Ki is 0.107 µM.

`COc1cc(N2Cc3nc(-c4ccc(Cl)cc4)sc3C2=O)ccc1OCC(C)(C)O` [Example 52, 2-(4-Chlorophenyl)-5-(4-(2-hydroxy-2-methylpropoxy)-3-methoxyphenyl)-4H-pyrrolo[3,4-d]thiazol-6(5H)-one] yielded a Ki of 0.068 µM.

In the case of `COc1cc(N2Cc3nc(-c4ccc(Cl)cc4)oc3C2=O)ccc1OCC(C)(C)O` [Example 53, 2-(4-Chlorophenyl)-5-(4-(2-hydroxy-2-methylpropoxy)-3-methoxyphenyl)-4H-pyrrolo[3,4-d]oxazol-6(5H)-one], the affinity, expressed as Ki, was 0.248 µM.

Consider `COc1cc(N2Cc3cc(-c4ccc(Cl)cc4)oc3C2=O)ccc1OCC(C)(C)O` [Example 54, 2-(4-Chlorophenyl)-5-(4-(2-hydroxy-2-methylpropoxy)-3-methoxyphenyl)-4H-furo[3,2-c]pyrrol-6(5H)-one], for which affinity was put at a Ki of 0.0133 µM.

Turning to `COc1cc(N2Cc3cc(-c4ncc(Cl)cn4)sc3C2=O)ccc1OCC(C)(C)OC(=O)CN` [Example 68], the Ki stood at 0.0176 µM.

Test system in the next assay: not listed separately
In words: Assessment of in vivo MCHR activity: body weight of rats with a choice of chow and high fat/high sugar diet. Also on record: species or system rat. As to conditions: male Sprague Dawley rats, 30 mg/kg p.o. daily day 0 through day 4, dosed as prodrug (Examples 57, 68, 66). The procedure:
Male SPRAGUE DAWLEY® (CD, Charles River Breeding Laboratory) rats weighing approximately 240 grams were place in individual plastic cages with ALPHADRI® bedding. The room was maintained at 72° F. and 50% humidity, and a 12/12 light dark cycle with lights out at 1600 hours. The rats were conditioned for 5 days prior to the start of the study to having a choice of foods. A normal chow (HARLAN TEKLAD®, 2018) that contains 18% protein, 5% fat and 73% carbohydrate and a high fat high sugar diet (Research Diets (D2327)) that contains 20% protein, 40% fat and 40% carbohydrate where the carbohydrate is entirely sucrose and the fat is soybean and coconut oil. […] Body weight and consumption of both kinds of food as well as water intake were measured daily. Water was available ad lib throughout the study. Food consumption is presented as daily caloric consumption which is the sum of grams of chow multiplied by the Kcal per gram (3.5) plus grams of high fat high sugar multiplied by Kcal per gram (4.59).
Baseline body weight was measured prior to drug treatment on day 0 of the study. Baseline food consumption was the average of the 3 days prior to the first drug treatment. Drug was administered daily p.o. at 2.0 ml/kg at 1500 hours beginning on day 0 and continuing daily through day 4 as a suspension in 0.5% methyl cellulose, 0.1% Tween 80 in water at 3.0, 10 and 30 mg/kg p.o. All data were evaluated using ANOVA and Fishers PLSD statistics.
In the case of `COc1cc(N2Cc3cc(-c4ccc(Cl)cc4)sc3C2=O)ccc1OCC(C)(C)O` [Example 1, 2-(4-Chlorophenyl)-5-(4-(2-hydroxy-2-methylpropoxy)-3-methoxyphenyl)-4H-thieno[3,2-c]pyrrol-6(5H)-one], the “Weight Reduction versus Vehicle” value is listed as 3.9%.

Turning to `COc1cc(N2Cc3cc(-c4ccc(Cl)cn4)sc3C2=O)ccc1OC[C@H](O)CS(C)(=O)=O` [Example 31], the “Weight Reduction versus Vehicle” value is 3.2%.

`COc1cc(N2Cc3cc(-c4ncc(Cl)cn4)sc3C2=O)ccc1OCC(C)(C)O` [Example 33]: the “Weight Reduction versus Vehicle” value is listed as 4.8%.
